Series [1] is described as follows: Solubility Screening of CHG in vehicles, Vacuum Method. How it is done: Solubility Screening. Screening tests were conducted to determine the solubility of CHG in a wide variety of vehicles. Tests were conducted using the Vacuum Method and the Lyophilizing Method.
Vacuum Method. […] The flask was put in a 60° C. oil bath and stirred with a magnetic stir bar. […] In those cases, after nearly all the water was removed, additional vehicle was added to bring the final weight to 50 grams. The resulting concentration of CHG and residual water were determined. Also, the final state of the solution was qualitatively evaluated to determine if the mixture was transparent and apparently homogenous, or clearly inhomogeneous.

A short description of series [2]: Solubility of lyophilized CHG in vehicles, Lyophilization Method. The note with it: for Apparent solubility 2 minutes / Apparent solubility 2 hours 50° C. / Apparent solubility >24 hours / Apparent solubility after cooling / Apparent solubility immediate: 0.2 wt. % lyophilized CHG; for Apparent solubility 2 minutes: after 2 minutes; for Apparent solubility 2 hours 50° C.: after 2 hours in 50° C. oven; for Apparent solubility >24 hours: after 24 hours; for Apparent solubility after cooling: after cooling to room temperature; for Apparent solubility immediate: observed immediately after mixing. The procedure:
The Lyophilization Method. Lyophilized CHG was prepared by freeze-drying the aqueous CHG solution (20 wt. % solution in water, obtained from Xttrium Laboratories Inc., Chicago, Ill.).
For lower viscosity vehicles, a 5 ml sample of the non-aqueous vehicle of interest was measured into a glass vial. For higher viscosity vehicles that were difficult to transfer by volume, a 5 gm sample was weighed into the vial. Next, 0.01 g of lyophilized CHG was added to the vial. The sample was capped and mixed by shaking for 30 seconds. The sample was immediately observed and then observed again after 2 minutes and again after 24 hours. After 24 hours, the sample was placed in a 50° C. oven for 2 hours and then removed and immediately observed. These samples were allowed to cool to room temperature and a final observation was made.
CHG solutions. The solutions containing CHG were either a 20 wt. % aqueous solution of CHG or a 10-20% w/w solution of CHG in a non-aqueous vehicle. The non-aqueous solutions were prepared by freeze drying the aqueous CHG solution to produce lyophilized CHG. Finely divided, lyophilized CHG was then solubilized in a non-aqueous vehicle at room temperature with continuous stirring for eight hours.

Where [3] appears, read: CHG 10 wt. % in vehicle, 23-50° C., Vacuum Method.
The mark [4] stands for this setting: CHG 20 wt. % in vehicle, 23-50° C., Vacuum Method.
The mark [5] stands for this setting: summary of Tables 1a-3b, Vacuum Method.
Where [6] appears, read: CHG 5 wt. % in vehicle, 23-50° C., Vacuum Method.

Structures can show the parent of a compound that is named as a salt. Where two headings read alike, the source gives them in different places.

Results on 49 molecules are retold here after US10456509B2, “Chlorhexidine gluconate compositions, resin systems and articles” (3M INNOVATIVE PROPERTIES COMPANY, priority 2012, dated 2019).

As to `OCCCCC(O)CO` (centres unmarked) [1,2,6-trihydroxyhexane], the “Final State” value in series [1] (setting [3]) is given as “Homogeneous”. Regarding `CCCCCCC(O)CO` (centres unmarked) [1,2-octanediol], the “Final State” value in series [1] (setting [3]) and in series [1] (setting [4]) was “Homogeneous” in each case. As to `CCCC(O)CO` (centres unmarked) [1,2-pentanediol], the “Final State” value in series [1] (CHG 50 wt. % in vehicle, 23-50° C., Vacuum Method) was “Homogeneous”. Take `CC(O)CO` (centres unmarked) [1,2-propanediol]: the “Final State” value in series [1] (setting [3]) was “Homogeneous”. Turning to `OC1CCCC(O)C1` (centres unmarked) [1,3-cyclohexanediol], the “Final State” value in series [1] (CHG 6 wt. % in vehicle, 23° C., Vacuum Method) is reported as “Inhomogeneous”; in series [1] (CHG 6 wt. % in vehicle, 50° C., Vacuum Method) it was “Homogeneous”; in series [1] (CHG 10 wt. % in vehicle, 23° C., Vacuum Method), “Inhomogeneous”; in series [1] (CHG 10 wt. % in vehicle, 50° C., Vacuum Method), “Homogeneous”.

Consider `OCC1(O)COC(O)(CO)CO1` (centres unmarked) [1,3-dihydroxyacetone dimer], for which the “Final State” value in series [1] (setting [3]) was “Homogeneous”. Turning to `OCCCCO` [1,4-butanediol], in series [1], the “CHG solubility in vehicle (trend)” value is on record as “provides solubility” and the “Final State” value is listed as “Homogeneous”. For the molecule `OC1CCC(O)CC1` (centres unmarked) [1,4-cyclohexanediol], the “Final State” value in series [1] (setting [3]) is “Inhomogeneous”. Further, the “CHG solubility in vehicle (trend)” value in series [1] (setting [5]) is given as “do not provide good solubility”. On to `OCCCCCO` [1,5-pentanediol], for which, in series [1], the “CHG solubility in vehicle (trend)” value is listed as “too widely separated to impart good solubility” and the “Final State” value is “Inhomogeneous”. For the molecule `OCCCCCCCCO` [1,8-octanediol], the “Final State” value in series [1] (setting [3]) was “Inhomogeneous”. Further, in series [1] (setting [5]), the “CHG solubility in vehicle (trend)” value is listed as “too widely separated to impart good solubility”. Consider `CC(O)C(C)O` (centres unmarked) [2,3-butanediol], for which the “Final State” value in series [1] is “Homogeneous”.

Consider `CC(C)(O)C(C)(C)O` [2,3-dimethyl-2,3-butanediol], for which, in series [1], the “CHG solubility in vehicle (trend)” value is “do not always impart solubility” and the “Final State” value is “Inhomogeneous”.

With `CC(O)CCC(C)O` (centres unmarked) [2,5-hexanediol], in series [1] (setting [3]), the “Final State” value is on record as “Inhomogeneous”. Moreover, in series [1] (setting [5]), the “CHG solubility in vehicle (trend)” value is recorded as “do not provide good solubility”. Take `CC(C)(O)CCO` [3-methyl-1,3-butanediol]: the “Final State” value in series [1] (CHG 1 wt. % in vehicle, 23° C., Vacuum Method) was “Inhomogeneous”; in series [1] (CHG 1 wt. % in vehicle, 50° C., Vacuum Method) it was “Homogeneous”; in series [1] (CHG 2.5 wt. % in vehicle, 23° C., Vacuum Method) it was “Inhomogeneous”; in series [1] (CHG 2.5 wt. % in vehicle, 50° C., Vacuum Method), “Homogeneous”; in series [1] (setting [6]), “Inhomogeneous”; in series [1] (setting [3]) it was “Inhomogeneous”. Take `CCOC(=O)CC(CC(=O)OCC)(OC(C)=O)C(=O)OCC` [Acetyltriethyl citrate]: in series [2], the “Apparent solubility 2 minutes” value is “no”, the “Apparent solubility 2 hours 50° C.” value is “soluble”, the “Apparent solubility >24 hours” value is on record as “partial” and the “Apparent solubility after cooling” value is on record as “partial”. Also, the Apparent solubility immediate result in series [2] is “no”. Regarding `CCCCOC(=O)[C@H](O)[C@@H](O)C(=O)OCCCC` [Dibutyl-L-Tartrate], in series [1], the “Final State” value was “Homogeneous”.

With `CCOC(=O)[C@@H](O)[C@H](O)C(=O)OCC` [Diethyl-D-Tartrate], in series [1] (setting [3]), the “Final State” value is on record as “Homogeneous”.

Regarding `CCOC(=O)[C@H](O)[C@@H](O)C(=O)OCC` [Diethyl-L-Tartrate], in series [1], the “Final State” value is on record as “Homogeneous”. With `COCCOCCOC` [Diethyleneglycol Dimethyl Ether], in series [1], the “Final State” value is “Inhomogeneous”.

In the case of `CCCCOCCOCCO` [Diethyleneglycol Monobutyl Ether], the “Final State” value in series [1] is “Inhomogeneous”. As for `CCOCCOCCO` [Diethyleneglycol monoethyl ether], the “Final State” value in series [1] (CHG 2.5 wt. % in vehicle, 23-50° C., Vacuum Method) was “Homogeneous”; in series [1] (setting [6]), “Inhomogeneous”; in series [1] (setting [3]) it was “Inhomogeneous”. For `COCCOCCO` [Diethyleneglycol monomethyl ether], the “Final State” value in series [1] (setting [3]) is “Homogeneous”. In the case of `CC(C)OC(=O)[C@@H](O)[C@H](O)C(=O)OC(C)C` [Diisopropyl-D-Tartrate], the “Final State” value in series [1] is reported as “Inhomogeneous”.

With `CC(C)OC(=O)[C@H](O)[C@@H](O)C(=O)OC(C)C` [Diisopropyl-L-Tartrate], the “Final State” value in series [1] (setting [3]) was “Inhomogeneous”.

For `CCCCC(CC)COCC(O)CO` (centres unmarked) [Ethylhexyl glycerin], in series [1], the “Final State” value is listed as “Homogeneous”. In the case of `CCCCCCCCO` [Example 1-octanol, 1-octanol], the “Final State” value in series [1] (setting [3]) was “Inhomogeneous”.

Regarding `CC(C)CCCCCCCCCCCCCCC(=O)OCC(O)CO` (centres unmarked) [GMIS-1, glycerol monoisostearate], the “solubility of CHG in vehicle (dissolution experiments using lyophilized CHG)” value in series [2] is reported as “limited”. Take `CC(C)CCCCCCCCCCCCCCC(=O)OCC(O)CO` (centres unmarked) [GMIS-2, glycerol monoisostearate]: the “solubility of CHG in vehicle (dissolution experiments using lyophilized CHG)” value in series [2] is given as “good solvent for CHG”. As to `OCC(O)CO` [Glycerol], the “Final State” value in series [1] is “Homogeneous”. On to `CCCCCCCC(=O)OCC(O)CO` (centres unmarked) [Glyceryl monocaprylate], for which the “Final State” value in series [1] is “Homogeneous”. `CC(C)CCCCCCCCCCCCCCC(=O)OCC(O)CO` (centres unmarked) [Glyceryl monoisostearate]: the “Final State” value in series [1] (CHG 10 wt. % in vehicle, 23-60° C., Vacuum Method) is “Homogeneous”; in series [1] (CHG 16 wt. % in vehicle, 23-60° C., Vacuum Method) it was “Homogeneous”; in series [1] (CHG 20 wt. % in vehicle, 60° C., Vacuum Method), “Homogeneous”.

Regarding `CCCCCCCCCCCC(=O)OCC(O)CO` (centres unmarked) [Glyceryl monolaurate], the “Final State” value in series [1] (CHG 20 wt. % in vehicle, 75° C., Vacuum Method) was “Homogeneous”. Take `CCCCCCCC/C=C\CCCCCCCC(=O)OCC(O)CO` (centres unmarked) [Glyceryl monooleate]: the “Final State” value in series [1] (setting [4]) was “Homogeneous”. As to `CCCCCCCCCCCCCCCCCC(=O)OCC(O)CO` (centres unmarked) [Glyceryl monostearate], the “Final State” value in series [1] (CHG 10 wt. % in vehicle, 80° C., Vacuum Method) is “Homogeneous”.

On to `CC(C)CCCCCCCCCCCCCCCOC(=O)CCCCCCCCCCCCCCC(C)C` [Isostearyl isostearate], for which, in series [2], the “Apparent solubility 2 minutes” value is on record as “no”, the “Apparent solubility 2 hours 50° C.” value is “partial”, the “Apparent solubility >24 hours” value is reported as “no” and the “Apparent solubility after cooling” value is “partial”. The Apparent solubility immediate result in series [2] is reported as “no”. On to `CCOC(=O)C(=O)OCC` [Oxalic Acid Diethyl Ester], for which the “Final State” value in series [1] is on record as “Inhomogeneous”. As for `CC(C)CCCCCCCCCCCCCCC(=O)OCC(COC(=O)CCCCCCCCCCCCCCC(C)C)(COC(=O)CCCCCCCCCCCCCCC(C)C)COC(=O)CCCCCCCCCCCCCCC(C)C` [Pentaerythritol tetraisostearate], in series [2], the “Apparent solubility 2 minutes” value was “partial”, the “Apparent solubility 2 hours 50° C.” value was “partial”, the “Apparent solubility >24 hours” value is “partial” and the “Apparent solubility after cooling” value was “partial”. In addition, the Apparent solubility immediate entry in series [2] is reported as “partial”. On to `OCCOCCOCCO` [Triethylene glycol], for which the “Final State” value in series [1] is on record as “Homogeneous”. Turning to `CC(O)COC(C)COC(C)CO` (centres unmarked) [Tripropylene glycol], the “Final State” value in series [1] is reported as “Inhomogeneous”. For the molecule Decaglyceryl pentaoleate, in series [1], the “Final State” value is “Inhomogeneous”.

Turning to Decaglyceryl tristearate, the “Final State” value in series [1] is given as “Homogeneous”.

Take Diisostearyl dimerate: in series [2], the “Apparent solubility 2 minutes” value is recorded as “no”, the “Apparent solubility 2 hours 50° C.” value is “soluble”, the “Apparent solubility >24 hours” value is given as “no” and the “Apparent solubility after cooling” value is recorded as “no”. The Apparent solubility immediate result in series [2] is “no”. As to Dimer Diol, the “Final State” value in series [1] is given as “Inhomogeneous”. As to Glycereth-18 Ethylhexanoate, in series [2], the “Apparent solubility 2 minutes” value was “no”, the “Apparent solubility 2 hours 50° C.” value was “soluble”, the “Apparent solubility >24 hours” value is given as “soluble” and the “Apparent solubility after cooling” value is “soluble”. Besides, the Apparent solubility immediate entry in series [2] is given as “no”. Regarding Octyldodeceth-10, in series [2], the “Apparent solubility 2 minutes” value is reported as “partial”, the “Apparent solubility 2 hours 50° C.” value is listed as “partial”, the “Apparent solubility >24 hours” value is “partial” and the “Apparent solubility after cooling” value is “partial”. For the same molecule, the Apparent solubility immediate entry in series [2] was “no”. With Polyethyleneglycol Dimethyl Ether, in series [1], the “Final State” value is recorded as “Inhomogeneous”. As for Polyglycerol-2-Triisostearate, the “Final State” value in series [1] is recorded as “Inhomogeneous”. Consider Sorbeth-6, for which the “Final State” value in series [1] is reported as “Homogeneous”. Regarding Triglyceryl diisostearate, the “Final State” value in series [1] is on record as “Inhomogeneous”.
